Experimental findings from patent US20120189579A1 (priority 2009, published 2012) are described below.

pEC50: −log10 of the molar value. Where a name gives a salt, the structure may show the parent alone.

For one series, the target named is T1, HCV NS5BΔ21/Gal4-DBD fusion protein (Hepatitis C virus genotype 1b, UniProt Q9WMX2).
T1 construct: The protein was expressed with a 21 amino acid C-terminal deletion to remove transmembrane domain; expressed in transfected cells; host or cells: Huh-7 (transient transfection)
Briefly: 3D-SCREEN assay (NS5B reporter gene assay in Huh-7 cells). Type of series: cell-based, HCV genotype 1b. As to the method: Human Hepatoma Huh-7 cell line was maintained in DMEM/HAMF-12 supplemented with 10% SVF, 4 mM glutamine, […] Na pyruvate, 1% penistreptomycine. HCV replicon containing Huh-7 cell lines Huh-9.13 and Luc Neo ET (Reblikon) were maintained in DMEM supplemented with 10% SVF, 2 mM glutamine, and 1×NEAA, 100 U/ml penicillin, and 100 μg/ml streptomycine. Replicon cells were maintained in medium supplemented with 1 mg/ml G418 for replicon Huh-9.13 and 0.5 mg/ml for Luc Neo et replicon unless indicated otherwise. Huh-7 and HCV replicon cell lines were maintained at 37° C. and 5% CO2 in a humidified atmosphere. Cells were dissociated at sub confluence with trypsin EDTA 1×.
cDNA encoding HCV NS5B genotype 1b, was cloned in frame with Gal4-DNA Binding Domain. The protein was expressed with a 21 amino acid C-terminal deletion to remove transmembrane domain. Expression of NS5BΔ21/Gal4 DBD fusion protein was under control of SV40 early promoter. 3D-Sensor peptide was cloned in frame with VP16 activation domain. Expression of 3D-Sensor/VP16 AD fusion protein was under control of CMV promoter. Expression of the firefly luciferase reporter gene was inducible by the [Target protein/conformation sensitive peptide/VP16AD] complex.
It is a single-target, cell based assay. Briefly, expression of a reporter gene depends on the interaction of a short peptide, thereafter named 3D-Sensor, and native conformation of the target protein. Whenever the conformation of the target protein is modified, interaction between 3D-sensor and target protein is disrupted and reporter gene is not expressed anymore. Conformation modifiers are identified by loss of expression of reporter gene. NS5B 3D-Screen platform was generated in Huh-7 cell lines by transient transfection of three expression vectors encoding respectively • (i) HCV NS5BΔ21/Gal4-DBD fusion protein • (ii) the 3D-sensor peptide 14/VP16 fusion protein • (iii) the firefly luciferase reporter gene
Huh-7 cells were dissociated the day before transfection and seeded in T175 flasks at a density of 10^7 cells in 30 ml culture medium. Equimolar ratios of vectors were transfected in cell according to optimized jetPEI transfection protocol (PolyPlus Transfection, Illkirch, France) and 10 μg total DNA/10^6 cells. Transfection was performed for 2 hours at 37° C. and 5% CO2 in a humidified atmosphere. After two hours cells were dissociated and seeded in 96 wells plates at a density of 25,000 cells per well and 90 μl culture medium. 10 μl of compounds to be tested were added 2 hours after seeding. Final concentration of DMSO was 1%. Cells were incubated in the presence of compounds for 24 hours after which expression of firefly luciferase reporter gene was quantified. Briefly, culture medium was removed and cells were lysed by addition of 100 μl of lysis buffer containing 125 mM Tris Phosphate ph 7.8, 10 mM EDTA, 5 mM DTT, 50% glycerol and 5% Triton. Plates were vortexed 10 min at 1300 rpm. Cell lysat was transferred in OpaqueWhite Assay 96 well Flat Bottom plates. 100 μl of luciferin solution 1× were added to each well. Luciferin solution contained 40 mM Tris Phosphate ph 7.8, 0.2 mM EDTA, 67 mM DTT, 2.14 mM MgCl2, 5.4 mM MgSO4, 4.7×10^−4 M luciferin, 5.3×10^−4 M ATP and 2.7×10^−4 M Acetyl co enzyme A. Luminescence was immediately measured with Berthold Microlumat Plus LB 96V luminometer with an integration of 0.5 sec. Inhibition was calculated using the formula: % inhibition=(1−(read/average max))*100. Average max=signal in absence of compound
The compound `COc1ccc(C(=O)C2=C(O)C(=O)N(c3nnc(C(F)(F)F)s3)C2c2ccc(C(C)(C)C)cc2)cc1` (centres unmarked) [Example 26, 5-(4-tert-butyl-phenyl)-3-hydroxy-4-(4-methoxy-benzoyl)-1-(5-trifluoromethyl-[1,3,4]thiadiazol-2-yl)-1,5-dihydro-pyrrol-2-one] had a pEC50 of 4.85.
`COc1ccc(C2C(C(=O)c3ccc(C)cc3)=C(O)C(=O)N2c2ncc(S(=O)(=O)c3ccc([N+](=O)[O-])cc3)s2)cc1` (centres unmarked) [Example 53] had a pEC50 of 5.22.
The same measure, in the same setting: as for `Cc1ccc(C2C(C(=O)c3ccc(Cl)cc3)=C(O)C(=O)N2c2ncc(S(=O)(=O)c3ccc([N+](=O)[O-])cc3)s2)cc1` (centres unmarked) [Example 66], the figure is 4.85; as for `Cc1ccc(C(=O)C2=C(O)C(=O)N(c3ncc(S(=O)(=O)c4ccc([N+](=O)[O-])cc4)s3)C2c2ccc(Cl)cc2)cc1` (centres unmarked) [Example 60], 4.89.
`CC(C)c1ccc(C2C(C(=O)c3ccc(C(C)(C)C)cc3)=C(O)C(=O)N2c2ncc(S(=O)(=O)c3ccc([N+](=O)[O-])cc3)s2)cc1` (centres unmarked) [Example 9, 4-(4-tert-butyl-benzoyl)-3-hydroxy-5-(4-isopropyl-phenyl)-1-[5-(4-nitro-benzenesulfonyl)-thiazol-2-yl]-1,5-dihydro-pyrrol-2-one] gave a pEC50 of 5.40.
Still for that read-out and setting: as for `CC(C)c1ccc(C(=O)C2=C(O)C(=O)N(c3ncc(S(=O)(=O)c4ccc([N+](=O)[O-])cc4)s3)C2c2ccc(C(F)(F)F)cc2)cc1` (centres unmarked) [Example 126, 3-hydroxy-4-(4-isopropyl-benzoyl)-1-[5-(4-nitro-benzenesulfonyl)-thiazol-2-yl]-5-(4-trifluoromethyl-phenyl)-1,5-dihydro-pyrrol-2-one], the figure is greater than 5.00.
`CC(C)c1ccc(C2C(Cc3ccccc3)=C(O)C(=O)N2c2ncc(S(=O)(=O)c3ccc([N+](=O)[O-])cc3)s2)cc1` (centres unmarked) [Example 36, 4-benzyl-3-hydroxy-5-(4-isopropyl-phenyl)-1-[5-(4-nitro-benzenesulfonyl)-thiazol-2-yl]-1,5-dihydro-pyrrol-2-one] gave a pEC50 of 5.30.
Still for that read-out and setting: next, `CC(C)(C)c1ccc(C2C(C(=O)c3nccs3)=C(O)C(=O)N2c2ncc(S(=O)(=O)c3ccc([N+](=O)[O-])cc3)s2)cc1` (centres unmarked) [Example 56, 5-(4-tert-butyl-phenyl)-3-hydroxy-1-[5-(4-nitro-benzenesulfonyl)-thiazol-2-yl]-4-(thiazol-2-carbonyl)-1,5-dihydro-pyrrol-2-one]: greater than 5.00.
The same measure, in the same setting: as for `Cc1ccc(C(=O)C2=C(O)C(=O)N(c3ncc(S(=O)(=O)c4ccc([N+](=O)[O-])cc4)s3)C2c2ccc(C)cc2)cc1` (centres unmarked) [Example 124], the figure is 5.15; as for `CC(C)c1ccc(C2C(C(=O)Cc3ccccc3)=C(O)C(=O)N2c2ncc(S(=O)(=O)c3ccc([N+](=O)[O-])cc3)s2)cc1` (centres unmarked) [Example 11, 3-hydroxy-5-(4-isopropyl-phenyl)-1-[5-(4-nitro-benzenesulfonyl)-thiazol-2-yl]-4-phenylacetyl-1,5-dihydro-pyrrol-2-one], 4.92; as for `COc1ccc(C(=O)C2=C(O)C(=O)N(c3nnc(-c4ccccc4)s3)C2c2ccc(C(C)(C)C)cc2)cc1` (centres unmarked) [Example 30, 5-(4-tert-butyl-phenyl)-3-hydroxy-4-(4-methoxy-benzoyl)-1-(5-phenyl-[1,3,4]thiadiazol-2-yl)-1,5-dihydro-pyrrol-2-one], 5.22.
In turn, `COc1ccc(C2C(C(=O)c3ccc(Cl)cc3)=C(O)C(=O)N2c2ncc(S(=O)(=O)c3ccc([N+](=O)[O-])cc3)s2)cc1` (centres unmarked) [Example 52] had a pEC50 of 5.22.
Same read-out and setting: as for `COC(=O)c1sc(N2C(=O)C(O)=C(C(=O)c3ccc(Cl)cc3)C2c2ccc(C(C)(C)C)cc2)nc1C` (centres unmarked) [Example 62], the figure is 4.70; as for `COc1ccc(C(=O)C2=C(O)C(=O)N(c3nnc(C4CCCCC4)s3)C2c2ccc(C(C)(C)C)cc2)cc1` (centres unmarked) [Example 27], 4.92; as for `O=C(C1=C(O)C(=O)N(c2ncc(S(=O)(=O)c3ccc([N+](=O)[O-])cc3)s2)C1c1cccc(Br)c1)c1ccc(Cl)cc1` (centres unmarked) [Example 57], 5.40.
On the same count and under the same terms, as for `CC(C)c1ccc(C2C(C(=O)c3ccc(Cl)cc3)=C(O)C(=O)N2c2ncc(S(=O)(=O)c3ccc([N+](=O)[O-])cc3)s2)cc1` (centres unmarked) [Example 32], the figure is 5.70.
Still for that read-out and setting: as for `CC(C)c1ccc(C2C(C(=O)c3ccc(OC(F)(F)F)cc3)=C(O)C(=O)N2c2ncc(S(=O)(=O)c3ccc([N+](=O)[O-])cc3)s2)cc1` (centres unmarked) [Example 13, 3-hydroxy-5-(4-isopropyl-phenyl)-1-[5-(4-nitro-benzenesulfonyl)-thiazol-2-yl]-4-(4-trifluoromethoxy-benzoyl)-1,5-dihydro-pyrrol-2-one], the figure is 5.70.
Regarding `O=C(C1=C(O)C(=O)N(c2ncc(S(=O)(=O)c3ccc([N+](=O)[O-])cc3)s2)C1c1cccc(Cl)c1)c1ccc(Cl)cc1` (centres unmarked) [Example 59], the negative logarithm of the EC50 (pEC50) was 4.85.

Test system in a further series: not given
Assay: not given
With `COc1ccc(C(=O)C2=C(O)C(=O)N(c3nnc(C(F)(F)F)s3)C2c2ccc(C(C)(C)C)cc2)cc1` (centres unmarked) [Example 26, 5-(4-tert-butyl-phenyl)-3-hydroxy-4-(4-methoxy-benzoyl)-1-(5-trifluoromethyl-[1,3,4]thiadiazol-2-yl)-1,5-dihydro-pyrrol-2-one], the melting point was 271 °C.
`COc1ccc(C(=O)C2=C(O)C(=O)N(c3nnc(C)s3)C2c2ccc(C#N)cc2)cc1` (centres unmarked) returned a melting point of 185 °C.
Compound `CC(C)(C)c1ccc(C2C(C(=O)CCc3ccccc3)=C(O)C(=O)N2c2ncc(S(=O)(=O)c3ccc([N+](=O)[O-])cc3)s2)cc1` (centres unmarked) had a melting point of 172 °C.
In turn, `COC(=O)c1ccc(C2C(C(=O)c3ccc(OC)cc3)=C(O)C(=O)N2c2nnc(C)s2)cc1` (centres unmarked) returned a melting point of 255 to 257 °C.
The same measure, in the same setting: next, `CC(C)c1ccc(C(=O)C2=C(O)C(=O)N(c3ncc(S(=O)(=O)c4ccc([N+](=O)[O-])cc4)s3)C2c2ccc(C(F)(F)F)cc2)cc1` (centres unmarked) [Example 126, 3-hydroxy-4-(4-isopropyl-benzoyl)-1-[5-(4-nitro-benzenesulfonyl)-thiazol-2-yl]-5-(4-trifluoromethyl-phenyl)-1,5-dihydro-pyrrol-2-one]: 300 to 302 °C; `COc1ccc(C(=O)C2=C(O)C(=O)N(c3nnc(C)s3)C2c2ccc(O)cc2)cc1` (centres unmarked): 251 °C.
The compound `Cc1ccc(C(=O)C2=C(O)C(=O)N(c3ncc(S(C)(=O)=O)s3)C2c2ccc(C(C)C)cc2)cc1` (centres unmarked) came in with a melting point of 269 to 271 °C.
For `CNC(=O)c1cccc(C2C(C(=O)c3ccc(OC)cc3)=C(O)C(=O)N2c2nnc(C)s2)c1` (centres unmarked) (as salt: hydrochloride), the melting point turned out to be 238 °C.
For `COC(=O)c1cccc(C2C(C(=O)c3ccc(OC)cc3)=C(O)C(=O)N2c2nnc(C)s2)c1` (centres unmarked), the melting point was determined as 218 °C.
On the same count and under the same terms, as for `Cc1ccc(C(=O)C2=C(O)C(=O)N(c3ncc(S(=O)(=O)c4ccc([N+](=O)[O-])cc4)s3)C2c2ccc(C(=O)O)cc2)cc1` (centres unmarked), the figure is 308 to 309 °C.
In turn, `COc1ccc(C(=O)C2=C(O)C(=O)N(c3nnc(C)s3)C2c2cccc(C(=O)O)c2)cc1` (centres unmarked) registered a melting point of 281 °C.
The compound `Cc1ccc(C(=O)C2=C(O)C(=O)N(c3ncc(S(=O)(=O)c4ccc([N+](=O)[O-])cc4)s3)C2c2ccc(C(=O)N(C)C)cc2)cc1` (centres unmarked) (as salt: hydrochloride) came in with a melting point of 205 °C.
The same measure, in the same setting: next, `COC1=C(C(=O)c2ccc(C)cc2)C(c2ccc(C(C)C)cc2)N(c2ncc(S(=O)(=O)c3ccc([N+](=O)[O-])cc3)s2)C1=O` (centres unmarked): 237 °C.
`Cc1ccc(C(=O)C2=C(O)C(=O)N(c3ncc(S(=O)(=O)c4ccc([N+](=O)[O-])cc4)s3)C2c2cccnc2)cc1` (centres unmarked) displayed a melting point of 211 °C.
Same read-out and setting: as for `COC1=C(C(=O)c2ccc(OC)cc2)C(c2ccc(C(C)(C)C)cc2)N(c2nnc(C)s2)C1=O` (centres unmarked), the figure is 235 to 237 °C; as for `COc1ccc(C(=O)C2=C(O)C(=O)N(c3nnc(C)s3)C2c2ccc(C(=O)O)cc2)cc1` (centres unmarked), 281 °C; as for `CNC(=O)c1ccc(C2C(C(=O)c3ccc(C)cc3)=C(O)C(=O)N2c2ncc(S(=O)(=O)c3ccc([N+](=O)[O-])cc3)s2)cc1` (centres unmarked) (as salt: hydrochloride), 195 to 197 °C.

What is called pEC50 is −log10 of the EC50, conventionally taken in molar units. Higher therefore signals a low EC50. One may read the melting point as the temperature of the solid-liquid transition.
